Source: publication PMC6241247, “Development and Application of an UHPLC-MS/MS Method for Comparative Pharmacokinetic Study of Eight Major Bioactive Components from Yin Chen Hao Tang in Normal and Acute Liver Injured Rats” (Evidence-based Complementary and Alternative Medicine : eCAM, 2018)

What was measured:
[1] = Plasma pharmacokinetics after oral administration of YCHT in control (normal) rats, UHPLC-MS/MS; type: in vivo, Sprague-Dawley rats; conditions: for CL/F / Cmax / MRT inf / MRT last / Tmax / half-life: Sprague-Dawley
Text: The validated method was used for the pharmacokinetic study.
P<0.05 represented statistical significance.

[2] = Plasma pharmacokinetics after oral administration of YCHT in model (CCl4-induced acute liver injury) rats, UHPLC-MS/MS
Description: The quality control (QC) and plasma samples were analyzed by an Agilent 6470 triple quadrupole LC–MS system (Agilent Technologies, Inc., Santa Clara, CA, USA), which consists of an Agilent 1290 Infinity II system connected to a triple quadrupole MS analyzer with an Agilent Jet Stream technologies electrospray ionization (ESI) interface. The Agilent 1290 LC system is equipped with degasser (G7116B), high speed pump (G7120A) and multisampler (G7167B). The samples (2 μL) were injected into the LC system. A MassHunter workstation was applied for LC–MS control and data acquisition.
Chromatographic separation was conducted with a CAPCELL PAK ADME (2.1 mm × 100 mm, 3 μm; Shiseido Co., Ltd., Tokyo, Japan). The mobile phase included 0.1% formic acid (A) and methanol (B), and the flow rate was 0.3 mL/min. Iridoid glycosides and anthraquinones were detected in the isocratic elution, which was kept 80% B for 5.5 min in the negative mode. The others were separated in the positive mode with another gradient program, which was maintained at 45% B for 0.5 min, then increased to 95% B in 2 min, and maintained at 95% B until 4.5 min, and the post time is 2 min.
The optimal parameters for the ESI interface were as follows: nebulizer, 45 psi; dry gas, 10 L/min; dry temp, 350°C; sheath gas, 11 L/min; sheath gas temp, 350°C; capillary voltage, 4000 V (in the positive mode) and 3500 V (in the negative mode); and delta EMV, 200 V. The MS parameters for iridoid glycosides and anthraquinones were improved in the negative mode, and the MS parameters for the other analytes were improved in positive mode.
The animals were randomly divided into the control group (n = 6) and the model group (n = 6): the model rats, i.e., acute liver injury rats, were induced by intraperitoneal injections of CCl4 diluted with olive oil (1:1, v/v) at a dose of 1.5 mL/kg.bw every day for three days, and the rats in the control group were administered with olive oil.
After being thawed at room temperature, 100 μL plasma was put in a 1.5 mL centrifuge tube, and then 100 μL IS solution and 300 μL acetonitrile was added. After the mixture was vortexed for 1 min, it was centrifuged at 12000 rpm for 10 min at 4°C to precipitate the protein. Then the supernatant was transferred to another clean centrifuge tube, and evaporated to dryness under nitrogen stream, the residue was reconstituted in 50 μL methanol-water (1:1, v/v). After centrifuging at 12000 rpm for 10 min at 4°C again, a 2 μL aliquot of supernatant was injected for LC–MS/MS analysis.
The validated method was used for the pharmacokinetic study. Standard diet was withheld over night before oral administration of YCHT, but with free access to water. And YCHT (60 g/kg) was administered to the rats by gastric perfusion, equivalent to 10.09 mg/kg of scoparone, 0.49 mg/kg scopoletin, 17.16 mg/kg of geniposide, 9.86 mg/kg of rhein, 2.66 mg/kg of aloe-emodin, 2.24 mg/kg of chrysophanol, 0.83 mg/kg of emodin, and 0.58 mg/kg of physcion.
A series of blood samples (0.3 mL) were collected from the rats' postorbital venous plexuses at 0 (pre-dose), 5, 10, 15, 30, 45, 60, 90, 120, 240, 480, 600, 720 and 1440 min, and put into heparinized tubes. The heparinized plasma was immediately centrifuged to separate at 3000 g for 10 min and stored at −80°C before experiments. The analytes' concentrations in plasma were determined by LC–MS/MS methods described above.
The plasma concentrations were expressed as arithmetic mean ± standard deviation (SD). And the mean concentration–time curves were calculated and plotted by DAS (version 3.0, Bio Guider Co., Shanghai, China), and the PK parameters consist of elimination half-life (t1/2), area under the plasma concentration-time curve (AUC), and mean residence time (MRT). The maximum plasma concentrations (Cmax) and corresponding peak time (Tmax) were obtained from the observed data directly.

P-glycoprotein (P-gp) = system: P-glycoprotein (P-gp); parameters: method as in PMID 25776492, PMID 26121397; conditions: cited from earlier work
[3] = control rats, oral YCHT 60 g/kg, plasma, n = 6
[4] = Fr = (AUCmodel/AUCcontrol)∗100%, oral YCHT 60 g/kg
[5] = Sprague-Dawley, rat, in vivo, po, 60 g/kg
[6] = model (CCl4 liver injured) rats, oral YCHT 60 g/kg, plasma, n = 6
[7] = rat, in vivo, control rats, oral YCHT 60 g/kg, plasma, n = 6, read-out: CLz/F (converted)
[8] = rat, in vivo, control rats, oral YCHT 60 g/kg, plasma, n = 6, read-out: MRT0–t
[9] = rat, in vivo, control rats, oral YCHT 60 g/kg, plasma, n = 6, read-out: MRT0–∞
[10] = rat, in vivo, control rats, oral YCHT 60 g/kg, plasma, n = 6, read-out: Tmax
[11] = rat, in vivo, control rats, oral YCHT 60 g/kg, plasma, n = 6, read-out: t 1/2 (converted)
[12] = Sprague-Dawley, rat, in vivo, po
[13] = rat, in vivo, control rats, oral YCHT 60 g/kg, plasma, n = 6, read-out: Cmax
[14] = Sprague-Dawley, rat, plasma, po, 60 g/kg

SMILES | CL/F ([1]; rat, in vivo, po, 60 g/kg) [mL/min/kg] | Cmax ([1]; rat, in vivo, po, 60 g/kg) [ng/mL] | MRT inf ([1]; rat, in vivo, po, 60 g/kg) [h] | MRT last ([1]; rat, in vivo, po, 60 g/kg) [h] | Tmax ([1]; rat, in vivo, po, 60 g/kg) [h] | half-life ([1]; rat, in vivo, po, 60 g/kg) [h] | AUC0–t [1, 3] [ug/L∗h] | AUC0–∞ [1, 3] [ug/L∗h] | Fr (relative bioavailability) [2, 4] [%] | CL/F [2, 5] [mL/min/kg] | Cmax [2, 5] [ng/mL] | MRT inf [2, 5] [h] | MRT last [2, 5] [h] | Tmax [2, 5] [h] | half-life [2, 5] [h] | AUC0–t [2, 6] | AUC0–∞ [2, 6] | CL/F [1, 7] [mL/min/kg] | MRT last [1, 8] [h] | MRT inf [1, 9] [h] | also measured
COc1cc(O)c2c(c1)C(=O)c1cc(C)cc(O)c1C2=O [Physcion] | 450 | 8.45 ± 1.61 | 3.54 ± 0.49 | 2.88 ± 0.25 | 1.25 ± 0.27 | 2.65 ± 0.99 | 21.05 ± 4.04 | 22.44 ± 5.54 | 213.68 | 211 | 9.99 ± 2.86 | 5.26 ± 1.3 | 4.07 ± 0.4 | 2.58 ± 1.11 | 3.06 ± 2.37 | 44.98 ± 13.92∗∗ ug/L∗h | 48.47 ± 12.74∗∗ ug/L∗h |  |  |  | 
COC(=O)C1=CO[C@@H](O[C@@H]2O[C@H](CO)[C@@H](O)[C@H](O)[C@H]2O)[C@@H]2C(CO)=CC[C@H]12 [Geniposide] |  |  |  |  |  |  | 1940.63 ± 210.72 | 1958.65 ± 206.96 | 257.67 | 55.7 | 1860 ± 109 | 5.99 ± 0.61 | 4.68 ± 0.57 | 0.58 ± 0.2 | 6.59 ± 2.46 | 5000.36 ± 755.13∗∗ ug/L∗h | 5223.83 ± 746.92∗∗ ug/L∗h | 147 | 4.57 ± 0.41 | 4.8 ± 0.47 | Cmax ([1]; rat, in vivo, 60 g/kg, normal group, oral YCHT, read-out: Cmax): 751 ± 47.7 ng/mL; Tmax [1, 10]: 0.33 ± 0.13 h; half-life [1, 11]: 3.55 ± 0.38 h
Cc1cc(O)c2c(c1)C(=O)c1cccc(O)c1C2=O [Chrysophanol] | 363 | 34.5 ± 4.99 | 3.34 ± 0.21 | 2.93 ± 0.16 | 0.63 ± 0.26 | 2 ± 0.23 |  |  |  | 257 | 37.6 ± 6.51 | 4.2 ± 0.77 | 3.43 ± 0.4 | 0.88 ± 0.35 | 3.12 ± 1.74 |  |  |  |  |  | AUC0–t ([1]; rat, in vivo, po, 60 g/kg): 99.34 ± 10.12 ug/L∗h; AUC0–∞ ([1]; rat, in vivo, po, 60 g/kg): 103.57 ± 10.09 ug/L∗h; Fr (relative bioavailability) [2, 12]: 142.23%; AUC0–t ([2]; rat, in vivo, po, 60 g/kg): 141.29 ± 27.92∗∗ ug/L∗h; AUC0–∞ ([2]; rat, in vivo, po, 60 g/kg): 148.47 ± 25.04∗∗ ug/L∗h
O=C(O)c1cc(O)c2c(c1)C(=O)c1cccc(O)c1C2=O [Rhein] | 82 | 664 ± 50.3 | 5.38 ± 0.49 | 4.79 ± 0.36 | 0.33 ± 0.13 | 4.64 ± 2.14 | 2031.40 ± 385.58 | 2074.39 ± 387.77 | 268.45 | 31.2 | 1760 ± 140 | 4.67 ± 0.65 | 4.38 ± 0.41 | 0.54 ± 0.19 | 3.62 ± 1.97 | 5453.29 ± 1202.14∗∗ ug/L∗h | 5518.78 ± 1256.46∗∗ ug/L∗h |  |  |  | 
Cc1cc(O)c2c(c1)C(=O)c1cc(O)cc(O)c1C2=O [Emodin] |  |  |  |  |  |  | 10.41 ± 0.83 | 12.06 ± 1.53 |  | 1050 | 3.89 ± 0.89 | 6.64 ± 0.78 | 4.83 ± 0.25 | 0.17 ± 0.05 | 3.64 ± 0.79 | 11.66 ± 2.70 ug/L∗h | 13.49 ± 2.43 ug/L∗h | 1160 | 4.94 ± 0.26 | 6.65 ± 1.99 | Cmax [1, 13]: 3.51 ± 0.59 ng/mL; Tmax [1, 10]: 0.2 ± 0.17 h; half-life [1, 11]: 3.33 ± 1.67 h; Fr (relative bioavailability) [2, 12]: 112.01%; P-gp substrate (P-glycoprotein (P-gp)): not P-gp substrates
COc1cc2ccc(=O)oc2cc1OC [Scoparone] |  |  |  |  |  |  | 2282.77 ± 390.03 | 2347.92 ± 428.69 | 227.64 |  |  |  |  |  |  | 5196.54 ± 513.37∗∗ ug/L∗h | 5197.06 ± 513.33∗∗ ug/L∗h |  |  |  | CL/F ([1]; rat, control rats, oral YCHT 60 g/kg, plasma, n = 6, read-out: CLz/F (converted)): 73.7 mL/min/kg; Cmax ([1]; rat, control rats, oral YCHT 60 g/kg, plasma, n = 6, read-out: Cmax): 939 ± 112 ng/mL; MRT last ([1]; rat, control rats, oral YCHT 60 g/kg, plasma, n = 6, read-out: MRT0–t): 3.19 ± 0.16 h; MRT inf ([1]; rat, control rats, oral YCHT 60 g/kg, plasma, n = 6, read-out: MRT0–∞): 3.51 ± 0.14 h; Tmax ([1]; rat, control rats, oral YCHT 60 g/kg, plasma, n = 6, read-out: Tmax): 0.54 ± 0.1 h; half-life ([1]; rat, control rats, oral YCHT 60 g/kg, plasma, n = 6, read-out: t 1/2 (converted)): 2.14 ± 0.71 h; CL/F [2, 14]: 32.7 mL/min/kg; Cmax [2, 14]: 1770 ± 107 ng/mL; MRT inf [2, 14]: 3.95 ± 0.26 h; MRT last [2, 14]: 3.94 ± 0.26 h; Tmax [2, 14]: 0.33 ± 0.13 h; half-life [2, 14]: 1.58 ± 0.13 h; AUC in model rats higher than in normal rats ([2]; model vs normal rats, oral YCHT): approximately 2 fold
O=C1c2cccc(O)c2C(=O)c2c(O)cc(CO)cc21 [Aloe-emodin] |  |  |  |  |  |  | 54.61 ± 6.50 | 60.86 ± 6.68 | 281.30 | 283 | 36.7 ± 3.09 | 4.07 ± 0.4 | 3.68 ± 0.34 | 0.58 ± 0.3 | 1.98 ± 0.71 | 153.62 ± 18.13∗∗ ug/L∗h | 158.71 ± 19.26∗∗ ug/L∗h | 737 | 3.34 ± 0.12 | 4.33 ± 0.84 | Cmax [1, 13]: 15.2 ± 1.68 ng/mL; Tmax [1, 10]: 0.54 ± 0.19 h; half-life [1, 11]: 2.26 ± 1.15 h
